Assay results published in patent US20120035247A1, “RNA Interference Mediated Inhibition of Signal Transducer and Activator of Transcription 6 (STAT6) Gene Expression Using Short Interfering Nucleic Acid (siNA)” (Merck Sharp & Dohme Corp., priority 2009, published 2012).
[invAb] = inverted abasic unit; m = 2'-O-methyl; r = 2'-OH (RNA); f = 2'-fluoro

Tested on: STAT6 mRNA
Assay: STAT6 siNA screen and dose response in human A549 cells, STAT6 mRNA by quantitative RT-PCR (Taqman)
Format: cell-based
Conditions: for % KD STAT6 mRNA 10 nM / IC50: Table 4, human A549 cells; for % KD STAT6 mRNA 10 nM / IC50 / % KD STAT6: mean ± S.D.; for % KD STAT6 10 nM: Table 5, A549 cells, three experiments, mean ± standard deviation; for % KD STAT6: human A549 cells, 10 nM siNA, 24 hrs, normalized to GAPDH and non-targeting control, n = 3
How it was run: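 A549 cells were transfected with siNA–RNAiMax complexes at a final 10 nM siNA and incubated 24 h without a medium change. STAT6 mRNA was measured by TaqMan qRT-PCR on cell lysates. Knock-down was calculated by the comparative Ct (ΔΔCt) method against the non-targeting control siNA, with relative expression taken as 2^−ΔΔCt.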

Row | Substance | % KD STAT6 mRNA 10 nM [%] | IC50 [pM] | % KD STAT6 10 nM [%] | % KD STAT6 [%]
1 | 29990-DC: STAT6 siNA duplex; sense SEQ ID NO: 44, antisense SEQ ID NO: 45; target GUGAAAGCCUGGUGGACAU, site 954 (sense GUGAAAGCCUGGUGGACAUTT; antisense AUGUCCACCAGGCUUUCACUU; sense: DNA at AGT, 2'-fluoro at CU, [invAb] at 5' end, 3' end, backbone not given here; antisense: sugars from the 5' end rrrfffmffmmmfffffmfmm, backbone not given here) [STAT6 siNA duplex; target GUGAAAGCCUGGUGGACAU, site 954] | 71.7 ± 1.8 | 23 ± 8.7 | 71.7 ± 1.8 | 71.7 ± 1.8
2 | 29997-DC: STAT6 siNA duplex; sense SEQ ID NO: 58, antisense SEQ ID NO: 59; target CUACCAUGGUGCCUUCUUA, site 2262 (sense CUACCAUGGUGCCUUCUUATT; antisense UAAGAAGGCACCAUGGUAGUU; sense: DNA at AGT, 2'-fluoro at CU, [invAb] at 5' end, 3' end, backbone not given here; antisense: sugars from the 5' end rrrmmmmmfmffmfmmfmmmm, backbone not given here) [STAT6 siNA duplex; target CUACCAUGGUGCCUUCUUA, site 2262] | 68.1 ± 6.2 | 18.1 ± 8.3 | 68.1 ± 6.2 | 68.1 ± 6.2
3 | 30008-DC: STAT6 siNA duplex; sense SEQ ID NO: 80, antisense SEQ ID NO: 81; target CUGCUCUGCUCAGAUGUGA, site 2549 (sense CUGCUCUGCUCAGAUGUGATT; antisense UCACAUCUGAGCAGAGCAGUU; sense: DNA at AGT, 2'-fluoro at CU, [invAb] at 5' end, 3' end, backbone not given here; antisense: sugars from the 5' end rrrfmfffmmmfmmmmfmmmm, backbone not given here) [STAT6 siNA duplex; target CUGCUCUGCUCAGAUGUGA, site 2549] | 72.6 ± 4.5 | 21.6 ± 12.4 | 72.6 ± 4.5 | 72.6 ± 4.5
